# Test results reported in patent EP0461815A1, “Anti-HBV pyrimidine nucleoside” (THE WELLCOME FOUNDATION LIMITED, priority 1990, dated 1991).
# Read-outs that look alike come from different tables or passages of the source.
# What was measured:
# Hepatitis B Virus (HBV) = experiment: Anti-HBV activity in HBV producer cell line HepG2 2.2.15: reduction of extracellular virion DNA and intracellular replicative intermediates; type: cell-based
# Procedure: The human HBV producer cell line of HepG2, 2.2.15, described and characterized by Sells et al., PNAS 84:1005, 1987 and J. Virol. […] This cell line was utilized in vitro to identify compounds with anti-HBV activity.
# Monolayer cultures were treated with 1-100µM of the active compound 1-(β-D-arabinofuranosyl)-5-prop-1-ynyluracil, for ten days. Supernatant media containing extracellular virion DNA (Dane particles) were harvested on day ten, treated with proteinase K (1 mg/mL) and sodium dodecyl sulfate (1%), and incubated at 50°C for one hour. DNA was extracted with equal volumes of phenol followed by chloroform and then precipitated by ammonium acetate and propanol. The DNA precipitate was dissolved and collected on nitrocellulose using the procedure of Schleicher and Schuell (S & S, 10 Optical Ave., Keene, NH 03431, Publication #700, 1987), and treated as described by Southern, J. Mol. Biol. 98:503, 1975. Cells were harvested, and the intracellular DNA. was obtained after cell lysis with guanidine isothiocyanate. The intracellular DNA was handled in the same manner as the extracellular DNA. After precipitation by ammonium acetate and propanol, the intracellular DNA precipitate was dissolved, cut by restriction endonuclease, Hind III, applied to agarose gel and then treated as described by Southern to determine the quantity of replicative intermediate forms. The antiviral effect of the drug was determined by measuring a reduction of the amount of Dane particles extruded into the culture medium (extracellular DNA) and a similar decrease in tie intracellular replicative intermediates (intracellular replicative form).
# [1] = Cell toxicity, cell growth inhibition assay (MTT uptake); type: cell-based; details: monkey, Vero cells, 50% inhibition of cell viability at 96 hours, read-out: cell toxicity (CCID₅₀)
# Procedure: Cell toxicity is assessed in a cell growth inhibition assay. Subconfluent cultures of Vero cells grown on 96-well microtiter dishes are exposed to different dilutions of drug, and cell viability determined daily on replicate cultures using uptake of a tetrazolium dye (MTT). The concentration requried for a 50% inhibition of cell viability at 96 hours is termed CCID₅₀.
# [2] = HepG2 2.2.15, 240 h, Expt. 5, HepG2 2.2.15 cells, ten days, read-out: Percent (Reduction) Inhibition of Hepatitus B Virus DNA in Extracellular Media
# [3] = HepG2 2.2.15, 240 h, Expt. 6, HepG2 2.2.15 cells, ten days, read-out: Percent (Reduction) Inhibition of Hepatitus B Virus DNA in Extracellular Media
structure (smiles),measurement,setting,value
CC#Cc1cn([C@@H]2O[C@H](CO)[C@@H](O)[C@@H]2O)c(=O)[nH]c1=O [1-(β-D-Arabinofuranosyl)-5-prop-1-ynyluracil],Percent (Reduction) Inhibition of Hepatitus B Virus DNA in Extracellular Media,"Hepatitis B Virus (HBV); Expt. 5, 11μM, HepG2 2.2.15 cells, ten days",N.I.
same,Percent (Reduction) Inhibition of Hepatitus B Virus DNA in Extracellular Media,"Hepatitis B Virus (HBV); Expt. 6, 37μM, HepG2 2.2.15 cells, ten days",N.I.
same,inhibition at 33 µM,Hepatitis B Virus (HBV); [2],87.4%
same,inhibition at 37 µM,"Hepatitis B Virus (HBV); HepG2 2.2.15, 240 h, Expt. 5, 37μM, HepG2 2.2.15 cells, ten days, read-out: Percent (Reduction) Inhibition of Hepatitus B Virus DNA in Extracellular Media",55.3%
same,inhibition at 100 µM,Hepatitis B Virus (HBV); [2],94.4%
same,inhibition at 11 µM,"Hepatitis B Virus (HBV); HepG2 2.2.15, 240 h, Expt. 6, 11μM, HepG2 2.2.15 cells, ten days, read-out: Percent (Reduction) Inhibition of Hepatitus B Virus DNA in Extracellular Media",71.5%
same,inhibition at 33 µM,Hepatitis B Virus (HBV); [3],89.1%
same,inhibition at 100 µM,Hepatitis B Virus (HBV); [3],98.5%
same,inhibition at 100 µM,"Hepatitis B Virus (HBV); Hepatitis B virus, HepG2 2.2.15, 240 h, Expt. 5, value in parentheses, read-out: % reduction in intracellular hepatitis B virus DNA replicative form",88%
same,inhibition at 100 µM,"Hepatitis B Virus (HBV); Hepatitis B virus, HepG2 2.2.15, 240 h, Expt. 6, value in parentheses, read-out: % reduction in intracellular hepatitis B virus DNA replicative form",95.3%
same,inhibition at 1 µM,"Hepatitis B Virus (HBV); Hepatitis B virus, HepG2 2.2.15, Expt.7, 1μM, read-out: Percent Inhibition of Hepatitis B Specific Intracellular Replicative Form (RF) DNA",35%
same,inhibition at 10 µM,"Hepatitis B Virus (HBV); Hepatitis B virus, HepG2 2.2.15, Expt.7, 10μM, read-out: Percent Inhibition of Hepatitis B Specific Intracellular Replicative Form (RF) DNA",33%
same,inhibition at 100 µM,"Hepatitis B Virus (HBV); Hepatitis B virus, HepG2 2.2.15, Expt.7, read-out: Percent Inhibition of Hepatitis B Specific Intracellular Replicative Form (RF) DNA",42%
same,CC50 at 96 h,[1],> 500 µM
